Patent US20230383292A1, “TARGETING XIST AND RNA METHYLATION FOR X REACTIVATION THERAPY” (The General Hospital Corporation, priority 2020, published 2023)

Tests used:
Type in all cases: cell-based
[1] = test system: CDKL5 wt allele; assay: qPCR of CDKL5 wt allele reactivation (Xi reactivation) in human CDKL5 patient fibroblast line
Method: Mecp2-Luc fibroblast cell lines were a generous gift from Dr. Bedalov. The clonal hybrid (cast/mus) cell line (EY.T4) was previously developed in the lab (Yildirim E et al. (2011) Nat Struct Mol Biol 19:56-61). Passage number is kept below 25, no further verification of cell line identity was performed. Human CDKL5 patient fibroblast cell lines were a generous gift from Dr. Sheridan. The clones (CDKL5wtXa, CDKL5mutXa) were previously developed by Dr. Roy Perlis. (Smita J et al. (2019). They were maintained in DMEM-glutamax (Gibco), supplemented with fetal bovine serum (FBS, 10%), non-essential amino acids (1×, Gibco), HEPES buffer (25 mM, Gibco), penicillin/streptomycin (1×, Gibco) and 2-Mercaptoethanol (Sigma). Transfection was performed with 20 nM ASO assisted by Lipofectamine LTX with Plus reagent (Thermo Fisher).
(§1) RNA is isolated by Trizol (Life Technologies) extraction (tissues are snap frozen in liquid nitrogen and ground with pestle and mortar or put in Trizol and homogenized using a Qiagen TissueLyser), treated with TurboDNAse for 30 min at 37° C. 2 μg RNA is used for each of the reverse transcriptase (and rt minus control) reactions (Superscript III, Invitrogen) followed by the SYBR green qPCR using the primers listed in table, with annealing temperature of 60° C. for 45 cycles. The relative efficiency of the reactivations is calculated by comparing to GAPDH or TBP RNA as the internal control in mouse experiment. The relative efficiency of the reactivations is calculated by comparing to RPL13a as the internal control in human cells.
A human CDKL5 patient fibroblast line carrying mutation on the Xa was treated with XIST ASO 6B to XIST and RNA meth inhibitor. 116. On day 0, cells were treated with 20 nM of XIST ASO 6B and treated with 1 nM-1 uM of RNA meth inhibitor 116 on days 0 and 4 (FIG. 3B). On day 7, cells were harvested for qPCR analysis.
Experiments were designed to test Xi reactivation with METTL3 siRNA with and without XIST ASO 6B. A human CDKL5 patient fibroblast line carrying mutation on the Xa was treated with ASO to XIST and siRNA to METTL3. On day 0, cells were treated with 20 nM of XIST ASO 6B with 50 nM of METTL3 siRNA or 50 nM of Scr siRNA (FIG. 6A). On day 7, cells were harvested for qPCR analysis. […] METTL3 expression was relative to untreated levels, normalized to RPL13a. […] CDKL5 wt reactivation was normalized to CDKL5mut expression from the Xa chromosome.
Experiments were designed to test Xi reactivation in human CDKL5 patient's fibroblast using METTL3 ASOs. A human CDKL5 patient fibroblast line carrying mutation on the Xa was treated with XIST ASO 6B to XIST and METTL3 ASOs to METTL3. On day 0, cells were treated with 20 nM of XIST ASO 6B and 0 nM-120 nM of METTL3 ASOs, also on at day 0. On day 5, cells were harvested for qPCR analysis. […] CDKL5 wt reactivation was normalized to CDKL5mut expression from the Xa chromosome (FIGS. 13A-13C). […] All of the ASOs targeting METTL3 increased Xi reactivation of CDKL5 compared to using the XIST ASO alone. A one way ANOVA, multiple comparison test provided the following data: P=0.0730 for ASO3-3 (ns); P=0.0073 for ASO3-6; and P=0.0141 for ASO3-7.

[2] = test system: CDKL5 wt allele; assay: qPCR of CDKL5 wt allele reactivation (Xi reactivation) in human CDKL5 patient NPC line; conditions: NPC
Method: Human CDKL5 patient NPCs were a generous gift from Dr. Sheridan. The clones (CDKL5wtXa, CDKL5mutXa) were previously developed by Dr. Roy Perlis. (Smita J et al. (2019). They were maintained in 50% of PSC Neural Induction Medium (Gibco), supplemented with Neural Induction supplement (×50) and 50% of Advanced DMEM/F12 Medium (Gibco) on Geltrex (Gibco) matrix-coated culture dish. Transfection was performed with 20-120 nM ASO assisted by Lipofectamine 3000 with Plus reagent (Thermo Fisher).
as §1
Experiments were designed to test Xi reactivation in human CDKL5 patient's NPCs with RNA meth inhibitor 116. A human CDKL5 patient NPC line carrying mutation on the Xa was treated with XIST ASO 6B to XIST and RNA meth inhibitor 116. On day 0, cells were treated with 20 nM of XIST ASO 6B and treated with 10 nM-100 nM of RNA meth inhibitor 116 at day 0 and day 4 (FIG. 9A). On day 7, cells were harvested for qPCR analysis. […] XIST expression was relative to untreated levels, normalized to RPL13a. […] CDKL5 wt reactivation was normalized to CDKL5mut expression from the Xa chromosome. […] There was 6.2% Xi reactivation in 1 nM of 116 treatment and 2% Xi reactivation in 10 nM treatment, both also in combination with 20 nM XIST ASO 6B.
A human CDKL5 patient NPC line carrying mutation on the Xa was treated with XIST ASO 6B to XIST and RNA meth inhibitor 117. On day 0, cells were treated with 20 nM of XIST ASO 6B, and treated with 10 nM-100 nM of RNA meth inhibitor 117 at days 0 and 4 (FIG. 10A). On day 7, cells were harvested for qPCR analysis. […] XIST expression was relative to untreated levels, normalized to RPL13a. […] CDKL5 wt reactivation was normalized to CDKL5mut expression from the Xa chromosome.
Experiments were designed to test Xi reactivation in human CDKL5 patient's NPCs using METTL3 ASOs. A human CDKL5 patient NPC line carrying mutation on the Xa was treated with XIST ASO 6B targeted to XIST and METTL3 ASO 3-7 targeted to METTL3. On day 0, cells were treated with 20 nM of XIST ASO-6B, and 0 nM-120 nM of METTL3 ASOs at day 0. On day 5, cells were harvested for qPCR analysis. […] CDKL5 wt reactivation was normalized to CDKL5mut expression from the Xa chromosome (FIG. 14). […] A one way ANOVA, multiple comparison test provided the following data: P=0.0069 for the combination with XIST ASO; and P=0.1941 for the combination without XIST ASO (ns).

[3] = test system: human XIST transcript; assay: XIST knock down by XIST ASOs (Table 1); design: ASO conc at max KD: unit not given here; conditions: for % Max KD: XIST knock down, cells treated for 72 hrs with XIST ASO; for ASO conc at max KD: concentration of XIST ASO giving max KD, 72 hrs
Excerpt: The methods include administering an inhibitor of an XIST RNA itself, e.g., an inhibitory nucleic acid targeting XIST RNA. Although in typical usage XIST refers to the human sequence and XIST to the mouse sequence, in the present application the terms are used interchangeably. The human XIST sequence is available in the ensemble database at ENSG00000229807; it is present on Chromosome X at 73,820,651-73,852,753 reverse strand (Human GRCh38.p2). The sequences of exons 1-6 are shown in SEQ ID NOs:73-79 (see FIG. 2); XIST exons correspond to 601-11972 (exon 1); 15851-15914 (exon 2); 19593-20116 (exon 3); 21957-21984 (exon 4); 22080-22288 (exon 5); and 23887-33304 (exon 6). […] The inhibitory nucleic acid targeting XIST RNA can be any inhibitory nucleic acid as described herein, and can include modifications described herein or known in the art. In some embodiments, the inhibitory nucleic acid is an antisense oligonucleotide (ASO) that targets a sequence in XIST RNA, e.g., a sequence within an XIST exon as shown in SEQ ID NO:1-45 or within the RNA sequence as set forth in NR_001564.2, preferably wherein the ASO comprises a sequence as shown in Table 1. In some embodiments, the inhibitory nucleic includes at least one locked nucleotide, e.g., is a locked nucleic acid (LNA). Table 1 provides a list of ASOs that have more than 80% XIST knock down when cells are treated for 72 hrs with the below XIST ASOs.

[4] = 0 nM-120 nM METTL3 ASO in combination with 20 nM XIST ASO 6B, day 5

## ASO3-6: ASO targeting human METTL3, CCATGGCTATGGATTCTTAG, SEQ ID NO 102 (listed as DNA, chemistry not fully specified)
[1]; [4]
  Xi reactivation (CDKL5 wt allele): 2-3%

## ASO3-7: ASO targeting human METTL3, GTTACAAGAGTAGGATGTGC, SEQ ID NO 103 (listed as DNA, chemistry not fully specified)
[1]; [4]
  Xi reactivation (CDKL5 wt allele): 1-4%
[2]; 80-120 nM of METTL3 ASO 3-7 in the absence of the XIST ASO, day 5
  Xi reactivation (CDKL5 wt allele): 1.7-2.6%
[2]; 80-120 nM of METTL3 ASO 3-7 in the presence of 20 nM XIST ASO 6B, day 5
  Xi reactivation (CDKL5 wt allele): 2.9-3.2%

## ASO3-3: ASO targeting human METTL3, TAGTACGGGTATGTTGAGC, SEQ ID NO 100 (listed as DNA, chemistry not fully specified)
[1]; [4]
  Xi reactivation (CDKL5 wt allele): 1-2%

## ASO 1G: XIST antisense oligonucleotide CTGAGATCACAGACAAATGG, SEQ ID NO 19 (listed as DNA, chemistry not given here)
[3]
  % Max KD: 95%
  ASO conc at max KD: 20

## ASO 6C: XIST antisense oligonucleotide TTGGCCTTGTGTCACAAGTC, SEQ ID NO 12 (listed as DNA, chemistry not given here)
[3]
  % Max KD: 97%
  ASO conc at max KD: 20

## ASO 4B: XIST antisense oligonucleotide CCAGGAAAGTATCTTGACAG, SEQ ID NO 32 (listed as DNA, chemistry not given here)
[3]
  % Max KD: 88%
  ASO conc at max KD: 100

## ASO 6B: XIST antisense oligonucleotide AGAAGTCTGGCACATCTGTG, SEQ ID NO 11 (listed as DNA, chemistry not given here)
[3]
  % Max KD: 98%
  ASO conc at max KD: 100

## ASO 1B: XIST antisense oligonucleotide GCCTGCCATATTGTCCCTGC, SEQ ID NO 14 (listed as DNA, chemistry not given here)
[3]
  % Max KD: 96%
  ASO conc at max KD: 20

## O=C(NCc1cn2cc(CNC[C@@H]3CCCO3)ccc2n1)c1cc(=O)n2ccccc2n1 [RNA meth inhibitor 117, 4-oxo-N-((6-[({[(2S)-oxolan-2-yl]methyl]amino)methyl}imidazo[1,2-a]pyridin-2-yl}methyl)-4H-pyrido[1,2-a]pyrimidine-2-carboxamide, reference compound]
[1]; 1 nM-1 uM of 117 with or without 20 nM ASO 6B, 7 days
  Xi reactivation (CDKL5 wt allele): no Xi reactivation
[2]; 10 nM-100 nM of 117 with or without 20 nM ASO 6B, 7 days
  Xi reactivation (CDKL5 wt allele): no Xi reactivation

## ASO 1T: XIST antisense oligonucleotide AGGATGAACCATGTGGTGAT, SEQ ID NO 24 (listed as DNA, chemistry not given here)
[3]
  % Max KD: 93%
  ASO conc at max KD: 20

## ASO 5Q: XIST antisense oligonucleotide CAGATAGGAACAATGAAGAG, SEQ ID NO 30 (listed as DNA, chemistry not given here)
[3]
  % Max KD: 89%
  ASO conc at max KD: 100
